This note sets out measurements from BindingDB's records for doi:10.1016/s0960-894x(98)00169-3 (Merck Research Laboratories, 1999).

Some results are limits rather than exact numbers.

The target in the assay is Beta-2 adrenergic receptor (Homo sapiens, UniProt P07550). Put plainly: Compound was tested for agonist activity against cloned human beta-2 adrenergic receptor at a concentration of 1000 nM.
Chain of Beta-2 adrenergic receptor (P07550 whole entry): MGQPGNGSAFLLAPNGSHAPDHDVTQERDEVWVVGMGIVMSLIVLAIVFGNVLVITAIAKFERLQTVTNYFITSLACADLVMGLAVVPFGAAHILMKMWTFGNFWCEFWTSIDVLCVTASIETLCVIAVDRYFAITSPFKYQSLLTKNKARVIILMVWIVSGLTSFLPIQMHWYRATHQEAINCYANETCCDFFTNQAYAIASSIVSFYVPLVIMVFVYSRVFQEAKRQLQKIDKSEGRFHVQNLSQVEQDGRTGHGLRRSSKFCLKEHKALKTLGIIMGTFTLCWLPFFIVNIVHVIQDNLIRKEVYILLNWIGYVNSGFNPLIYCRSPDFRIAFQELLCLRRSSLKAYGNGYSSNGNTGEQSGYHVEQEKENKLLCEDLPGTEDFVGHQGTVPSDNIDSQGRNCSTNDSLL

One may read the EC50 as the midpoint of the concentration-response curve. Low readings indicate higher potency in that assay, high ones lower potency in that assay. For `COc1ccc(CC[C@H](C)NC[C@@H](O)COc2ccc(O)cc2)cc1` [4-{(R)-2-Hydroxy-3-[(S)-3-(4-methoxy-phenyl)-1-methyl-propylamino]-propoxy}-phenol], the concentration giving a half-maximal response (EC50) is under 0.1 nM.
